Laboratory results reported in patent US20250154109A1, “SODIUM CHANNEL BLOCKING COMPOUNDS, DERIVATIVES THEREOF, AND METHODS OF THEIR USE” (LATIGO BIOTHERAPEUTICS, INC, priority 2022, published 2025).
Counter-ions that a name gives are not always drawn. Like-named read-outs stand apart in the source and are kept apart here.

Target: human Nav1.8 (Homo sapiens, UniProt Q9Y5Y9)
Assay: SyncroPatch384PE assay (automated patch clamp)
Assay type: cell-based
Conditions: human Nav1.8/b3 CHO cells
[1] = inactivated state block (P2 measurement), read-out: P2 IC50
[2] = resting state block (P1 measurement), read-out: P1 IC50

human Nav1.8, sequence (Q9Y5Y9 whole entry): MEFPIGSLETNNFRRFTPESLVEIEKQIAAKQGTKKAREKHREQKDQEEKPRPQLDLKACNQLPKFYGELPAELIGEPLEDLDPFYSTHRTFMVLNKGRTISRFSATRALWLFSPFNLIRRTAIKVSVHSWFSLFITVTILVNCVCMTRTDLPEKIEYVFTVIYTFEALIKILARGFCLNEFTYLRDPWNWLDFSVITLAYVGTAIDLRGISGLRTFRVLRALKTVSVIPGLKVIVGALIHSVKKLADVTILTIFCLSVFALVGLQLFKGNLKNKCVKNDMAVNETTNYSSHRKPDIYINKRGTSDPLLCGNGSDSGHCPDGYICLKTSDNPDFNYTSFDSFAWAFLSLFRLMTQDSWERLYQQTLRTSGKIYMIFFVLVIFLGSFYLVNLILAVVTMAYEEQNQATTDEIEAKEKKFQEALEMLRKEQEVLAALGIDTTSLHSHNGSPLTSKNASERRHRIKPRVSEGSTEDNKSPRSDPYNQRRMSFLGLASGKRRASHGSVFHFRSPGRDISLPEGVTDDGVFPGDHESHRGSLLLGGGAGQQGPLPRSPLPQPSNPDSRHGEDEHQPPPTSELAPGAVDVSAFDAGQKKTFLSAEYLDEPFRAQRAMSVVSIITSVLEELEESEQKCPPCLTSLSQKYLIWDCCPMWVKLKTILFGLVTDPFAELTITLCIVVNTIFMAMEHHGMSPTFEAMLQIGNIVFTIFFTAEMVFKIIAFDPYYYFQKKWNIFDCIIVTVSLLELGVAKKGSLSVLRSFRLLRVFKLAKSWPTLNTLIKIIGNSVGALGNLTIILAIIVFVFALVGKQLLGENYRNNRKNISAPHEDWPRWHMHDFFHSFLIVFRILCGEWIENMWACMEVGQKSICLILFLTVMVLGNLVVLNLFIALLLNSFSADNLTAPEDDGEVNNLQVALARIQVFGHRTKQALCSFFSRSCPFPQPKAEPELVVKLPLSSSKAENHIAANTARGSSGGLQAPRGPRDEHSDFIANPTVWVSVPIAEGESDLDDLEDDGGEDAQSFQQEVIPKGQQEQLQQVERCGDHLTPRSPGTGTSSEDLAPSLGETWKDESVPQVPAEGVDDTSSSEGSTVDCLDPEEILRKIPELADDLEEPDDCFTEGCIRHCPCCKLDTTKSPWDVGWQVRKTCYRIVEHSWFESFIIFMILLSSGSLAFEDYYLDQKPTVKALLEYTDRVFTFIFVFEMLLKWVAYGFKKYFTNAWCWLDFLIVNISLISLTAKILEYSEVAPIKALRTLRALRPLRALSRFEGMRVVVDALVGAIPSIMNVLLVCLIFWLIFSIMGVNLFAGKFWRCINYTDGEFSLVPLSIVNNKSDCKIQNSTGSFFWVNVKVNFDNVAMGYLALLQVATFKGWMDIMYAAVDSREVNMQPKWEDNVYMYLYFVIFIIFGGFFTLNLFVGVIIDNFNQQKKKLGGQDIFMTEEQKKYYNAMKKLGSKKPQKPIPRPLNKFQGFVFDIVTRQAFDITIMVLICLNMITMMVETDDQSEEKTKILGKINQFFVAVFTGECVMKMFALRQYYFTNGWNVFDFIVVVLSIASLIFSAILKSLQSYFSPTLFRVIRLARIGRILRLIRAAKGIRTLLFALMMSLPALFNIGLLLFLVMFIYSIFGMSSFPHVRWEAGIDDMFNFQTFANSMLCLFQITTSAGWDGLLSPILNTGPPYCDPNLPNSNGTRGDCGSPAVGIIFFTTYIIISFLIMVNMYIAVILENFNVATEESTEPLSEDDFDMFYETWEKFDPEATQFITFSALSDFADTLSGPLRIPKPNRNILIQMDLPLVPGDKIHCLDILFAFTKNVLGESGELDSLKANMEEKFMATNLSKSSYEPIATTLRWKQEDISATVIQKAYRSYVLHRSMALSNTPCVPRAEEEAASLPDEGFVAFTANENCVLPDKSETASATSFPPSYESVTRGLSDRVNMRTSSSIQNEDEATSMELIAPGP

Compound | IC50 [1] [nM] | IC50 [2] [nM]
Cc1nc(N2CCCC(F)(F)CC2)c(C(=O)Nc2cccc([S@](C)(=N)=O)c2)c(C)c1C(F)(F)F (single isomer, unassigned) [Example 186] | ≤ 5 | ≤ 5
CNCC(=O)N=[S@](C)(=O)c1cccc(NC(=O)c2c(N3CCCC(F)(F)CC3)ncc(-c3ccc4c(c3)OCCO4)c2C)c1 [Example 48, (R)-2-(4,4-difluoroazepan-1-yl)-5-(2,3-dihydrobenzo[b][1,4]dioxin-6-yl)-4-methyl-N-(3-(S-methyl-N-(methylglycyl)sulfonimidoyl)phenyl)nicotinamide] | ≤ 5 | ≤ 5
Cc1c(-c2cnn(C3CC3)c2)cnc(N2CCCC(F)(F)CC2)c1C(=O)Nc1cccc([S@](C)(=N)=O)c1 [Example 69, (R)-5-(1-cyclopropyl-1H-pyrazol-4-yl)-2-(4,4-difluoroazepan-1-yl)-4-methyl-N-(3-(S-methylsulfonimidoyl)phenyl)nicotinamide] | 5 to 50 | 5 to 50
CNCC(=O)N=[S@](C)(=O)c1cccc(NC(=O)c2c(N3CCCC(F)(F)CC3)ncc(-c3ccc(F)c(F)c3)c2C)c1 [Example 60, (R)-2-(4,4-difluoroazepan-1-yl)-5-(3,4-difluorophenyl)-4-methyl-N-(3-(S-methyl-N-(methylglycyl)sulfonimidoyl)phenyl)nicotinamide] | ≤ 5 | ≤ 5
Cc1noc(C)c1-c1cnc(N2CCCC(F)(F)CC2)c(C(=O)Nc2cccc([S@](C)(=N)=O)c2)c1C [Example 156, (R)-2-(4,4-difluoroazepan-1-yl)-5-(3,5-dimethylisoxazol-4-yl)-4-methyl-N-(3-(S-methylsulfonimidoyl)phenyl)nicotinamide] | > 200 | > 200
Cc1c(-c2cnn(C)c2)cnc(N2CCCC(F)(F)CC2)c1C(=O)NC12CC(C(=O)O)(C1)C2 [Example 142, 3-(2-(4,4-difluoroazepan-1-yl)-4-methyl-5-(1-methyl-1H-pyrazol-4-yl)nicotinamido)bicyclo[1.1.1]pentane-1-carboxylic acid] | ≤ 5 | ≤ 5
Cc1c(C(F)(F)F)cnc(N2CCCC(F)(F)CC2)c1C(=O)Nc1cccc([S@@](C)(=O)=NC(=O)C(C)(C)N)c1 [Example 187, (R)-N-(3-(N-(2-amino-2-methylpropanoyl)-S-methylsulfonimidoyl)phenyl)-2-(4,4-difluoroazepan-1-yl)-4-methyl-5-(trifluoromethyl)nicotinamide] | ≤ 5 | ≤ 5
Cc1c(-c2cn[nH]c2)cnc(N2CCCC(F)(F)CC2)c1C(=O)Nc1cccc([S@](C)(=N)=O)c1 [Example 144, (R)-2-(4,4-difluoroazepan-1-yl)-4-methyl-N-(3-(S-methylsulfonimidoyl)phenyl)-5-(1H-pyrazol-4-yl)nicotinamide] | > 200 | > 200
Cc1c(-c2ccc(C#N)cc2)cnc(N2CCCC(F)(F)CC2)c1C(=O)Nc1cccc([S@](C)(=N)=O)c1 [Example 49, (R)-5-(4-cyanophenyl)-2-(4,4-difluoroazepan-1-yl)-4-methyl-N-(3-(S-methylsulfonimidoyl)phenyl)nicotinamide] | ≤ 5 | ≤ 5
Cc1c(C(=O)Nc2cccc([S@@](C)(=O)=NC(=O)[C@@H]3CCCN3)c2)c(N2CCCC(F)(F)CC2)nc(C(F)(F)F)c1-c1cnn(C)c1 [Example 190, N-(3-((R)-N-(L-prolyl)-S-methylsulfonimidoyl)phenyl)-2-(4,4-difluoroazepan-1-yl)-4-methyl-5-(1-methyl-1H-pyrazol-4-yl)-6-(trifluoromethyl)nicotinamide] | ≤ 5 | ≤ 5
Cc1c(-c2cccc(C#N)c2)cnc(N2CCCC(F)(F)CC2)c1C(=O)Nc1cccc(S(C)(=N)=O)c1 (centres unmarked) [Example 91, 5-(3-cyanophenyl)-2-(4,4-difluoroazepan-1-yl)-4-methyl-N-(3-(S-methylsulfonimidoyl)phenyl)nicotinamide] | 5 to 50 | 5 to 50
Cc1nc(N2CCC3(CC2)CC3)c(C(=O)Nc2cccc(S(C)(=N)=O)c2)cc1Cl (centres unmarked) [Example 12, 5-chloro-6-methyl-N-(3-(S-methylsulfonimidoyl)phenyl)-2-(6-azaspiro[2.5]octan-6-yl)nicotinamide] | ≤ 5 | ≤ 5
Cc1c(-c2cnn(C(C)C)c2)cnc(N2CCCC(F)(F)CC2)c1C(=O)Nc1cccc([S@](C)(=N)=O)c1 [Example 160, (R)-2-(4,4-difluoroazepan-1-yl)-5-(1-isopropyl-1H-pyrazol-4-yl)-4-methyl-N-(3-(S-methylsulfonimidoyl)phenyl)nicotinamide] | 5 to 50 | 5 to 50
Cc1c(-c2cnn(C)c2)cnc(N2CCCC(F)(F)CC2)c1C(=O)Nc1ccnc([S@](C)(=N)=O)c1 [Example 200, (R)-2-(4,4-difluoroazepan-1-yl)-4-methyl-5-(1-methyl-1H-pyrazol-4-yl)-N-(2-(S-methylsulfonimidoyl)pyridin-4-yl)nicotinamide] | 100 to 200 | 100 to 200
Cc1c(C#CCO)cnc(N2CCCC(F)(F)CC2)c1C(=O)Nc1cccc([S@](C)(=N)=O)c1 [Example 123, (R)-2-(4,4-difluoroazepan-1-yl)-5-(3-hydroxyprop-1-yn-1-yl)-4-methyl-N-(3-(S-methylsulfonimidoyl)phenyl)nicotinamide] | > 200 | > 200
Cc1c(Br)cnc(N2CCCC(F)(F)CC2)c1C(=O)Nc1cccc(S(C)(=N)=O)c1 (centres unmarked) [Example 86, 5-bromo-2-(4,4-difluoroazepan-1-yl)-4-methyl-N-(3-(S-methylsulfonimidoyl)phenyl)nicotinamide] | ≤ 5 | ≤ 5
Cc1c(C#N)c(C(F)(F)F)nc(N2CCCC(F)(F)CC2)c1C(=O)Nc1cccc([S@@](C)(=O)=NC(=O)C(C)(C)N)c1 [Example 227, (R)-N-(3-(N-(2-amino-2-methylpropanoyl)-S-methylsulfonimidoyl)phenyl)-5-cyano-2-(4,4-difluoroazepan-1-yl)-4-methyl-6-(trifluoromethyl)nicotinamide formate] | ≤ 5 | ≤ 5
O=C(Nc1cc[nH]c(=O)c1)c1nnc(C(F)(F)F)cc1N1CCCC(F)(F)CC1 [Example 40, 4-(4,4-Difluoroazepan-1-yl)-N-(2-oxo-1,2-dihydropyridin-4-yl)-6-(trifluoromethyl)pyridazine-3-carboxamide] | > 200 | > 200
Cc1c(-c2ccc(Cl)c(F)c2)cnc(N2CCCC(F)(F)CC2)c1C(=O)Nc1cccc([S@](C)(=N)=O)c1 [Example 166, (R)-5-(4-chloro-3-fluorophenyl)-2-(4,4-difluoroazepan-1-yl)-4-methyl-N-(3-(S-methylsulfonimidoyl)phenyl)nicotinamide] | ≤ 5 | ≤ 5
CNCC(=O)N=[S@](C)(=O)c1cccc(NC(=O)c2c(N3CCCC(F)(F)CC3)nc(C(F)(F)F)c(C#N)c2C)c1 [Example 65, (R)-5-cyano-2-(4,4-difluoroazepan-1-yl)-4-methyl-N-(3-(S-methyl-N-(methylglycyl)sulfonimidoyl)phenyl)-6-(trifluoromethyl)nicotinamide] | ≤ 5 | ≤ 5
C=CCCc1ccc(C(=O)Nc2cccc([S@](C)(=N)=O)c2)c(N2CCCC(F)(F)CC2)n1 [Example 35, (R)-6-(But-3-en-1-yl)-2-(4,4-difluoroazepan-1-yl)-N-(3-(S-methylsulfonimidoyl)phenyl)nicotinamide] | ≤ 5 | ≤ 5
Cc1c(-c2cnn(C(F)(F)F)c2)cnc(N2CCCC(F)(F)CC2)c1C(=O)Nc1cccc([S@](C)(=N)=O)c1 [Example 176, (R)-2-(4,4-difluoroazepan-1-yl)-4-methyl-N-(3-(S-methylsulfonimidoyl)phenyl)-5-(1-(trifluoromethyl)-1H-pyrazol-4-yl)nicotinamide] | ≤ 5 | ≤ 5
Cc1nc(N2CCCC(F)(F)CC2)c(C(=O)Nc2cccc([S@@](C)(=N)=O)c2)cc1C(F)(F)F [Example 5, (S)-2-(4,4-Difluoroazepan-1-yl)-6-methyl-N-(3-(S-methylsulfonimidoyl)phenyl)-5-(trifluoromethyl)nicotinamide] | ≤ 5 | ≤ 5
CNCC(=O)N=[S@](C)(=O)c1cccc(NC(=O)c2c(N3CCCC(F)(F)CC3)nnc(C(F)(F)F)c2C)c1 [Example 43, (R)-3-(4,4-difluoroazepan-1-yl)-5-methyl-N-(3-(S-methyl-N-(methylglycyl)sulfonimidoyl)phenyl)-6-(trifluoromethyl)pyridazine-4-carboxamide] | ≤ 5 | ≤ 5
C[S@@](=N)(=O)c1cc(NC(=O)c2cc(Cl)c(C(F)(F)F)cc2N2CCO[C@@H](C(F)(F)F)C2)ccn1 [Example 217, 5-chloro-N-(2-((R)—S-methylsulfonimidoyl)pyridin-4-yl)-4-(trifluoromethyl)-2-((R)-2-(trifluoromethyl)morpholino)benzamide] | 50 to 100 | 50 to 100
CNCCN=[S@](C)(=O)c1cccc(NC(=O)c2c(N3CCCC(F)(F)CC3)ncc(Br)c2C)c1 [Example 211, (R)-5-bromo-2-(4,4-difluoroazepan-1-yl)-4-methyl-N-(3-(S-methyl-N-(2-(methylamino)ethyl)sulfonimidoyl)phenyl)nicotinamide 2,2,2-trifluoroacetate] | ≤ 5 | ≤ 5
C[S@](=N)(=O)c1cccc(NC(=O)c2c(N3CCCC(F)(F)CC3)cnc(C(F)(F)F)c2Cl)c1 [Example 207, (S)-3-chloro-5-(4,4-difluoroazepan-1-yl)-N-(3-(S-methylsulfonimidoyl)phenyl)-2-(trifluoromethyl)isonicotinamide] | 5 to 50 | 5 to 50
Cc1c(-c2cnn(C)c2)cnc(N2CCCC(F)(F)CC2)c1C(=O)Nc1cccc([S@@](C)(=O)=NC(=O)[C@@H](C)N)c1 [Example 75, N-(3-((R)-N-(D-alanyl)-S-methylsulfonimidoyl)phenyl)-2-(4,4-difluoroazepan-1-yl)-4-methyl-5-(1-methyl-1H-pyrazol-4-yl)nicotinamide] | 5 to 50 | 5 to 50
